For experiment [1], the system named is 6-OHDA lesioned Wistar rats. As to the kind of experiment: Rat unilateral 6-OHDA model of Parkinson's disease, stepping test. The class given is in vivo. Particulars: D11, 10 mg/kg IP once daily for 15 days; 6-OHDA/Vehicle 1.19±0.24 steps. On the procedure:
Fifty adult male Wistar rats were used. The rats from different groups (G1 to G5) were randomized. At the beginning of the study, the rats were about 5 weeks old and naive to previous administration of any drug.
A stereotaxic injection of 6-OHDA (G2 to G5) or saline (G1: sham group) was performed to induce a unilateral dopaminergic lesion on day 0 (D0). Surgery was performed on D0 under ketamine (50 mg/kg) and xylazine (10 mg/kg). The rats of G2 to G5 received a unilateral injection of 6-OHDA (6 μL) in the left substantia nigra pars compacta. Jouve et al., J. Neurosci. 2010, 30, 9919-9928. The rats of the G1 sham group were injected with saline. During surgery, local analgesia was achieved using subcutaneous injections of lidocaine. At the end of surgery, the rats were treated with buprenorphine (0.05 mg/kg, S.C.).
The stepping test was performed after IT test, both before the 6-OHDA lesion induction on D0 and on D11. Around D−6, the stepping test was performed eight consecutive times for the right paw of each animal to obtain baseline values. On D11, the stepping test was performed one hour after the rats were dosed. Each rat was hold by an experimenter and only one of the two forelimbs was left free to move above a plane surface and the other was held with the paw touching the table. The rats were then to be moved slowly forward by the experimenter. The number of adjusting steps was countered for the right paw. Olsson et al., J. Neurosci. 1995, 15, 3863-3875.
L-DOPA and benserazide (a peripheric DOPA decarboxylase inhibitor) were prepared together as a single solution containing 0.9% NaCl and 0.1% ascorbic acid.
All the dosings were given via the IP route, once daily, Sunday excluded.

A further experiment deals with SERCA. Briefly: Ca-ATPase assay, microsomal preparations from HEK 293 cells. The format is biochemical, human. On the procedure:
A Ca-ATPase assay was performed using microsomal preparations from HEK 293 cells at a series of calcium concentrations corresponding to the physiological range, relative to controls. The ATP hydrolysis rate was measured over a range of calcium concentrations in the presence of test compounds using an NADH-linked, enzyme-coupled ATPase assay adapted for 96-well microplates, with Vmax determined by fitting the ATPase calcium-dependence to the Hill function. […] CaCl2 was added to set free [Ca^2+] to the specific values.

A further experiment deals with PERK, elF2α, CHOP. Briefly: Liver protein markers of ER stress (western blot). To be noted: liver of ob/ob mice, 50 mg/kg. The class given is in vivo, mouse. The method, then: Proteins were analyzed by western blot and quantified. Bands were normalized to GAPDH and expressed as 100% of ob/ob+vehicle (ob). Liver tissues were homogenized with a bench-top homogenizer in an ice-cold tissue lysis buffer. The homogenized samples were centrifuged at 8,000×g for 20 min at 4° C. The lipid layer was removed and the supernatant was transferred into Eppendorf tubes. After centrifuging at 16,000×g for 60 min at 4° C., the supernatants were normalized to the same concentration and boiled at 100° C. in 1× Laemmli buffer for 5 min. The lysate was cooled to room temperature before loading for Western blot analysis. Protein lysate was resolved on SDS polyacrylamide gel and transferred onto PVDF membrane at a voltage of 100 V for 2 hrs at 4° C. The membrane was blocked in 10% blocking reagent and incubated overnight with a primary antibody in Tris-buffered saline solution/Tween (TBST)/10% blocking reagent at 4° C. After incubation, the membrane was washed three times in TBST for 20 min and incubated at room temperature with a secondary antibody in TBST/10% blocking reagent for 1 hr. The membrane was washed three times for 20 min and developed using a chemiluminescence assay system. To strip a membrane for another primary antibody, the membrane was agitated at 50° C. for 20 min in a box with stripping buffer (2% SDS and 100 mM 2-mercaptoethanol in TBS, pH 7.5). […]
(In general: In western blotting, separated proteins are transferred to a membrane and probed.)

The next experiment has as its system PS1/APP mice. Briefly: Alzheimer's disease model, 2-photon Ca2+ imaging of CA1 pyramidal neurons in brain slices. Particulars: 10 mg/kg IP for 4 weeks, vs saline. The format is in vivo, mouse. From the text: PS1/APP mice (PS1M146V and APPSWE) (Howlett et al., Brain Res. 2004, 1017, 130-136) were used. Age-matched NTg controls were on the same background strain (C57bl6/J9).
Mice were deeply anesthetized with halothane and rapidly decapitated. The brains were extracted rapidly and 300 or 400 μm-thick transverse hippocampal slices were cut with a vibrating microtome into ice-cold oxygenated artificial cerebrospinal fluid (aCSF) with the following composition (in mM): 125 NaCl, 2.5 KCl, 1.25 KH2PO4, 1.2 MgSO4, 2 CaCl2, 10 dextrose, and 25 NaHCO3.
Ca^2+ imaging within individual neurons was performed in brain slice preparations using a custom-made video-rate multiphoton-imaging system based on an upright Olympus BX51 microscope frame. […] Emitted fluorescence light was detected by a wide-field photomultiplier (Electron Tubes) to derive a video signal that was captured and analyzed by Video Savant 5.0 software (IO Industries). […] For clarity, results are expressed as inverse ratios so that increases in [Ca^2+] correspond to increasing ratios. The % change is calculated as […], where F is the average resting fluorescence at baseline and ΔF is the decrease of fluorescence reflecting Ca release. Differences between drug- and saline-treated groups were assessed using two-way ANOVA and Scheffe post hoc analysis for significance (p<0.05). […]

SMILES strings stand for the structures.

For `Cc1ccc2cccc(NC(=O)c3ccc(OC(C)C)cc3)c2n1` [Compound A12, 4-Isopropoxy-N-(2-methylquinolin-8-yl)benzamide], the “number of adjusting steps” value in experiment [1] stood at 6.94±0.86 steps. Further, in the experiment on SERCA, the “Vmax of a SERCA” value is reported as “significantly increased”. In addition, in the experiment with PERK, elF2α, CHOP, the “expression of CHOP” value is listed as “significantly reduced”; the “phosphorylation of PERK and elF2α” value is listed as “significantly reduced”. For the same compound, the “ER Ca2+ signaling (RyR-Ca2+ response to caffeine)” value with PS1/APP mice was “restores ER Ca^2+ signaling”.

The values above are taken from patent US20170281611A1, “QUINOLINES AND THEIR USE FOR TREATING ENDOPLASMIC RETICULUM STRESS-CAUSED DISEASES” (EIGER BIOPHARMACEUTICALS, INC., priority 2014, published 2017).
